Test results reported in paper PMC5768343, “A natural inhibitor of kidney-type glutaminase: a withanolide from Physalis pubescens with potent anti-tumor activity” (Oncotarget, 2017).

Tests used:
[1] = test system: SW1990 cells; assay: EdU and DAPI double staining proliferation assay, SW1990; type: cell-based, human; settings: 5 μM
Procedure: The logarithmic growth phase cells were seeded in 24-well plates at 2 × 10^4 ∼ 5 × 10^5 cells per well. After 4–6 h, the medium was removed, the medium containing no or different concentrations of compound was replaced, and 50 μM of EdU was added. 2 h later, the medium was removed, cells washed by PBS. 200 μL of cell fixative (i.e., PBS containing 4% paraformaldehyde) was added and incubated at room temperature for 30 minutes. The solution was discarded and 200 μL of 2 mg/mL glycine was added to each well. After 5 minutes of incubation, the glycine solution was discarded. Each well washed with 200 μL of PBS, rinse for 5 minutes, and PBS was removed. Apollo staining was added to each well with 200 μL of 1 X Apollo® staining solution. After incubation for 30 minutes at room temperature and decolorization, the reaction solution was discarded. Similarly, 200 μL of 1 × Hoechst 33342 solution was added to each well to dye the total DNA. After 30 minutes of incubation at room temperature and the reaction solution was discarded, and then the images were captured and analyzed by fluorescence microscopy.

[2] = target: T1, catalytic domain of human KGA (cKGA) (Homo sapiens, UniProt O94925); assay: In vitro KGA enzyme inhibition assay (GDH-coupled, NADH absorbance 340 nm); type: biochemical
T1 sequence (O94925 221-553): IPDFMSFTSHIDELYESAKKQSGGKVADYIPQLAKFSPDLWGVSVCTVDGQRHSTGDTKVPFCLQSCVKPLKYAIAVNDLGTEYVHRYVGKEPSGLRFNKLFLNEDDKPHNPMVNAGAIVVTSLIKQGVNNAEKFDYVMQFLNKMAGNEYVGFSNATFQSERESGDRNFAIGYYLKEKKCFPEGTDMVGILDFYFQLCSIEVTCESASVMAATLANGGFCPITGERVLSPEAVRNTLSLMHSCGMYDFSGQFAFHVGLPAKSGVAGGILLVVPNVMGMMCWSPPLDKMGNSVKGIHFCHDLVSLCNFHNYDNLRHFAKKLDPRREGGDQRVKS
Procedure: To validate the finding of the virtual ligand screening, the catalytic domain of human KGA (cKGA) was expressed by recombinant technique. […] Enzyme kinetics has been measured to explore the mode of inhibition.
Specific details were referenced to our previous work. Briefly, The catalytical domain of human KGA (cKGA) encoding amino acids 221–553 was cloned into pET26b vector with C-terminal His tag. The cKGA was then expressed in E.coli BL21 (DE3)-RIL-Condon plus. Cultures were grown in LB media contain 35 mg/L kanamycin at 37°C to OD value in 0.6–0.8, then induced at 16°C with 0.4 mM IPTG for 16 h. Cultures were harvested by centrifugation at 3500 g for 8 minutes. Cell pellets were sonicated in a buffer containing 50 mM Hepes (pH 7.5), 500 mM NaCl, 5mM imidazole, […], 1 mM DTT, 0.1% Triton X-100, and final 1 mM PMSF (Sigma-Aldrich USA). The cKGA were purified by affinity chromatography by Ni-NTA agarose, and further purified by size exclusion chromatography (Superdex 200, GE-health care, USA). The purified cKGA was stored in buffer containing 20 mM Hepes (pH 7.5), 200 mM NaCl, 10% glycerol and 3 mM DTT.
The KGA profiling assays were to evaluate the compound-dependent inhibition of KGA in vitro catalytic assay. Specific details were referenced to our previous work. Briefly, the KGA catalyzed the glutamine into glutamate plus ammonium, and then glutamate plus NAD converted to α-ketoglutarate and NADH by the catalysis of GDH. The elevated absorbance at 340 nm with the form of NADH was recorded using a microplate reader. The enzymatic activity was measured in 100 μL system. Mixed buffer containing 0.15 M K2HPO4, 50 mM Tris-Acetate pH 8.6, 0.1 mg/mL bovine serum albumin (BSA), 0.25 mM EDTA, 1 mM DTT, 4 mM NAD were prepared. Then, 10 mM glutamine, 1 unit of glutamate dehydrogenase (GDH) and inhibitor were added in the mix. Final concentration of 1 μM cKGA was added to initiate the reaction. Generation of NADH was monitored by 340 nm absorbance every minute for 20 minutes at 37°C. The IC50 values were calculated by fitted regression equation using the-log plot (GraphPad Prism). Each value was on behalf of the means ± SD of three independent tests, each with three replicates.

[3] = test system: SW1990 xenograft; assay: SW1990 xenograft mouse model; type: in vivo; settings: 5 mg/kg intraperitoneal injection daily, P < 0.01, dose-dependent
Procedure: All animal experiments were performed in accordance with the Guide for the Care and Use of Laboratory Animals of Tongji Medical College, Huazhong University of Science and Technology and approved by the Ethics Committee. CB-17/ SCID mice (male, 4 weeks old) were purchased from Beijing HFK Bioscience CO., LTD (Beijing, China). SW1990 cells were inoculated subcutaneously (3 × 10^6 cells) into the left flank of each mouse. Six days later, mice were randomly divided into […] and were injected i.p. daily for 16 days with one of the following treatments: (1) natural saline group (n = 10); (2) 5 mg/Kg physapubescin K (n = 10); (3) 10 mg/Kg physapubescin K (n = 10). The dose volume was 0.1 mL/10 g body weight, and the weights of mice were recorded every day. Meanwhile, the tumor volumes were measured with vernier calipers and calculated by the following formula: (A × B2)/2, where A was length and B was width of the two-dimension tumor. After animals were sacrificed, tumor weights were measured. The inhibition ratio (%) was calculated using the following equation: I% = 100% × [Wtumor (vehicle) − Wtumor (treated)]/Wtumor (vehicle)

[4] = target: T2, KGA (recombinant cKGA) (Homo sapiens, UniProt O94925); assay: Microscale thermophoresis (MST) binding assay; settings: labeled KGA 200 nM, 26°C
T2 construct: human KGA (cKGA) encoding amino acids 221–553 was cloned into pET26b vector; His tag (C); made in house; host or cells: E. coli BL21 (DE3)-RIL-Codon plus
T2 sequence (O94925 221-553): T1 sequence (O94925 221-553)
From the text: Specific details were referenced to our previous work.

[5] = test system: glutamine metabolism in SW1990 cells; assay: Intracellular metabolite levels and NADPH/NADP+, SW1990; type: cell-based, human; settings: SW1990, 2.5 or 5 μM, 4 hours
Procedure: Blocking glutamine metabolism can inhibit the growth and proliferation of glutamine-dependent cells, mainly because of blocking the production and utilization of glutamine metabolites. The effects of different concentrations of physapubescin K on the intracellular glutamine and its downstream metabolites were examined. […] And the same effect could also be seen in Hcc827-ER cells (Figure 7C).
NADPH/NADP^+ ratio was determined by using NADP^+/NADPH Quantification Colorimetric Kit (BioVision, #K347-100). The abundance of intracellular glutamine (KeyGen, Nanjing, China A124), glutamate (KeyGen, Nanjing, China A074), (BioVision, #K778), aspartate (BioVision, #K552), oxaloacetate (BioVision, #K659) and malate (BioVision, #K637) was determined by using quantification kits, according the manufacturer’s instruction. Briefly, 5 × 10^6 cells (10-cm dishes) were collected during log-phase growth by cell scraper, homogenized in 0.2 mL of provided buffers (on ice), and centrifuged at 4°C for 10 min at 13,000 g. Supernatants were deproteinized using 10 K Ultrafiltration tube (Millipore, USA), analyzed and compared to standard curves. The signals obtained were normalized to the protein concentration calculated upon processing a parallel 10-cm dish.

[6] = test system: human pancreatic cancer cells (SW1990); assay: CCK8 cytotoxicity / proliferation assay, SW1990; settings: for relative cell vitality: CCK8
Procedure: The SW1990, HT1080, and A375-S2 human tumor cell lines were obtained from ATCC (Manassas, VA, USA). […] SW1990, HT1080, and LO2 cells were cultured in DMEM medium with 10% fetal bovine serum (FBS). All of these cells were cultured at 37°C in a humidified atmosphere with 5% CO2. To estimate cell viability, cells (5000/well) were separately seeded in 96-well plates for 24 h at 37°C in a 5% CO2 incubator. […] All the experiments were performed in triplicate, and the mean absorbance values were calculated. The IC50 values of the compounds were derived from the mean OD values of the triplicate tests versus the drug concentration curves.
Cell proliferation was assessed by incubating them with Cell Counting Kit-8 reagents (Dojindo, Shanghai, China) for 24 h, 48 h, 72 h, 96 h at 37°C and measuring the absorbance at 450 nm. The experiment was performed in triplicate.

CO[C@H]1O[C@@H]([C@@H](C)[C@H]2C[C@H](OC(C)=O)[C@H]3[C@@H]4C[C@H]5O[C@]56[C@@H](O)C=CC(=O)[C@]6(C)[C@H]4CC[C@@]32C)C[C@]2(C)O[C@]12C [physapubescin K] was tested, and the proliferated cell ratio [1] was “close to zero”, the IC50 ([2]; 1 μM cKGA, 10 mM glutamine, 37°C) was 520 ± 60 nM and the “catalytic rate of cKGA” value ([2]; 5 μM compound, after substrate concentration was increased from 10 mM to 40 mM (0 at 10 mM)) was 0.02 ∆OD/min. The “inhibition of the activity of KGA” value ([2]; 5 μM compound, substrate concentration 10 mM) was “completely inhibit”, the mode of inhibition ([2]; higher concentration, increases in Km for glutamine) was “competitive” and the mode of inhibition ([2]; low concentration, decrease in Vmax, little effect on Km for glutamine) was “non-competitive”. For the same molecule, the reversibility of inhibition ([2]; saturated inhibition assay, 5 μM) was “reversible”, the “growth of the tumor” value [3] was “significantly inhibit the growth of the tumor” and the Kd [4] was 3030 ± 380 nM. For the same molecule, the consumption of glutamine [5] was “significantly reduce”, the “production of glutamic acid and its downstream metabolites (oxaloacetic acid, aspartic acid, malic acid)” value [5] was “decrease” and the “proportion of NADPH/NADP+” value [5] was “significantly reduced”. For the same molecule, the IC50 ([6]; Homo sapiens, SW1990, 48 h, read-out: IC50 SW1990) was 2210 ± 10 nM, the “sensitivity of cell growth to treatment” value ([6]; SW1990, 1 μM) was “sensitive” and the relative cell vitality ([6]; SW1990, 2 μM, 24 h) was 50.3%. The relative cell vitality ([6]; SW1990, 2 μM, 36 h) was 37.6%, the relative cell vitality ([6]; SW1990, 2 μM, 48 h) was 27.3% and the cell proliferation ([6]; SW1990, 2 μM, alleviated by addition of 4 mM glutamate) was “significantly inhibited cell proliferation”.
